From paper PMC5226424 (Biochemistry, 2016)

Biological target: T1, carboxyltransferase from S. aureus (SaCT) (Staphylococcus aureus, UniProt Q2FXM7+Q5HF73)
T1 sequence (Q2FXM7 1-314): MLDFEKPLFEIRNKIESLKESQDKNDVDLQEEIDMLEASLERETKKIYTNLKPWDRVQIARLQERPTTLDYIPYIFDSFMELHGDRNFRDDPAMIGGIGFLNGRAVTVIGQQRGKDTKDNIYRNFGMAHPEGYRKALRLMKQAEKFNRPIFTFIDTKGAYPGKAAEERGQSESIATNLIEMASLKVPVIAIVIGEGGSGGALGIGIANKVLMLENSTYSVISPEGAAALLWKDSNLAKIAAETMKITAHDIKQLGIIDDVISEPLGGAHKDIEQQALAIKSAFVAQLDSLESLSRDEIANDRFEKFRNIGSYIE
T1 sequence (Q5HF73 1-285): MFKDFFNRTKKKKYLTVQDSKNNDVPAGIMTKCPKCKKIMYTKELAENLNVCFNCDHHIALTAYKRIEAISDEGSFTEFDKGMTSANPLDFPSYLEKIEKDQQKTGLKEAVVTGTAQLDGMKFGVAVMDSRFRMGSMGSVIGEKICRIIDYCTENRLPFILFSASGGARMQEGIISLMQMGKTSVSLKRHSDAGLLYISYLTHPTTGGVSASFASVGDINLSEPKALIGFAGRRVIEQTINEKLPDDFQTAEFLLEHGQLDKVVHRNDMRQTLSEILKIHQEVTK
Assay: coupled citrate synthase / malate dehydrogenase assay at […] nm, reverse direction
Format: biochemical
Details: 150 μM malonyl-CoA, 6 mM biocytin, pH 8.0

C[C@H]1CC(=O)NC1=O [compound 4, (3S)-Methyl-pyrrolidine-2,5-dione]
% decrease in activity at 50 nM: 65%
